# Data reported in US7351875B2, “FcγRIIa transgenic animal model for autoimmune disease” (Trillium Therapeutics, Inc., priority 2002, dated 2008).
# Assays:
# [1] = test system: FcγRIIa transgenic mice with CIA; assay: Collagen-induced arthritis (CIA) in FcγRIIa transgenic mice, arthritis index; format: in vivo, mouse; settings: FIG. 14
# Text: In transgenic mouse models of the present invention the following mice strains were used DBA/1 (H-2^q) males at 8-12 weeks old, C57BL/6 (H-2^b) and (C57BL/6×SJ (H-2^b/s) males or females at 8-15 weeks old, and transgenic mice expressing the FcγRIIa human transgene on platelets, neutrophils and macrophages at physiological levels, (as described in McKenzie et al. 1999). Transgenic males or females at 12-15 weeks old were used in collagen-induced arthritis (CIA) experiments, and >25 weeks old for the spontaneous autoimmune disease studies. All mice were bred and kept in clean conditions and were fed a standard diet and water ad libitum. The mouse is characterised in the published paper by McKenzie et al. 1999, listed in references.
# Complete Freund's Adjuvant (CFA) was prepared by mixing 100 mg heat-killed M tuberculosis H37 Ra (Difco Laboratories, Detroit, Mich.) ground in 20 ml Incomplete Freund's Adjuvant (Difco Laboratories, Detroit, Mich.). […]
# Mice were examined 2-3 times per week from day 14 onwards. […] The score of each mouse was calculated for the four limbs (maximum total score of 12 for each mouse) (Campbell et al. 1997). […]
# The score for each mouse was calculated by adding the scores of the four limbs (maximum score of 12 for each mouse) (Campbell et al. 1997). […]
# [2] = test system: non transgenic DBA/1 mice with CIA; settings: Neurath, Hildner et al. 1999; cited from earlier work
compound,measurement,setting,value
CN(Cc1cnc2nc(N)nc(N)c2n1)c1ccc(C(=O)N[C@@H](CCC(=O)O)C(=O)O)cc1 [methotrexate],delay of CIA,"[1]; 1 mg/kg for 14 days from second collagen injection, day 21-35",effective in delaying CIA
same,disease after treatment ceased,[1]; as immune function returned to normal after treatment ceased,increased in severity
same,delay of CIA in DBA/1 mice,[2],effective in delaying CIA
